Laboratory results from patent publication US9149038B2, “4-amino-6-(heterocyclic)picolinates and 6-amino-2-(heterocyclic)pyrimidine-4-carboxylates and their use as herbicides” (Dow AgroSciences LLC, priority 2013, dated 2015).
Read-outs that look alike come from different tables or passages of the source.

Columns and labels:
[1] = system: Key Broadleaf Weed and Crop Species; experiment: Post-Emergent Test II: postemergent herbicidal activity, visual rating after 14 d (Table 7); format: in vivo; conditions: post-emergence, 336 h; for pest or weed control at 35 g/ha: 35 g ai/ha; for pest or weed control at 70 g/ha: 70 g ai/ha; for pest or weed control at 140 g/ha: 140 g ai/ha
Summary of the method: (§1)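 Plants were raised in a greenhouse for 7-21 d and treated once at the first or second true leaf stage. Compounds, dissolved in 97:3 acetone:DMSO then diluted into an aqueous acetone/isopropanol/crop oil/Triton X-155 carrier, were applied by overhead track sprayer at 187 L/ha. After 14 d with subirrigation, injury was scored visually from 0 (none) to 100 (complete kill).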

[2] = system: Key Grass and Sedge Weeds as well as Grass Crops; experiment: Post-Emergent Test II: postemergent herbicidal activity, visual rating after 14 d (Table 8); format: in vivo; conditions: post-emergence, 336 h; for pest or weed control at 35 g/ha: 35 g ai/ha; for pest or weed control at 70 g/ha: 70 g ai/ha; for pest or weed control at 140 g/ha: 140 g ai/ha
Summary of the method: as §1

[3] = lambsquarters (Chenopodium album), read-out: Visual Growth Reduction (%) 14 Days After Application CHEAL
[4] = oilseed rape, canola (Brassica napus), read-out: Visual Growth Reduction (%) 14 Days After Application BRSNN
[5] = redroot pigweed (Amaranthus retroflexus), read-out: Visual Growth Reduction (%) 14 Days After Application AMARE
[6] = sunflower (Helianthus annuus), read-out: Visual Growth Reduction (%) 14 Days After Application HELAN
[7] = velvetleaf (Abutilon theophrasti), read-out: Visual Growth Reduction (%) 14 Days After Application ABUTH
[8] = wild poinsettia (Euphorbia heterophylla), read-out: Visual Growth Reduction (%) 14 Days After Application EPHHL
[9] = barnyardgrass (Echinochloa crus-galli), read-out: Visual Growth Reduction (%) 14 Days After Application ECHCG
[10] = giant foxtail (Setaria faberi), read-out: Visual Growth Reduction (%) 14 Days After Application SETFA
[11] = maize, corn (Zea mays), read-out: Visual Growth Reduction (%) 14 Days After Application ZEAMX
[12] = rice (Oryza sativa), read-out: Visual Growth Reduction (%) 14 Days After Application ORYSA
[13] = wheat, spring (Triticum aestivum), read-out: Visual Growth Reduction (%) 14 Days After Application TRZAS
[14] = yellow nutsedge (Cyperus esculentus), read-out: Visual Growth Reduction (%) 14 Days After Application CYPES

SMILES	pest or weed control at 35 g/ha [1, 3] [%]	pest or weed control at 70 g/ha [1, 3] [%]	pest or weed control at 140 g/ha [1, 3] [%]	pest or weed control at 35 g/ha [1, 4] [%]	pest or weed control at 70 g/ha [1, 4] [%]	pest or weed control at 140 g/ha [1, 4] [%]	pest or weed control at 35 g/ha [1, 5] [%]	pest or weed control at 70 g/ha [1, 5] [%]	pest or weed control at 140 g/ha [1, 5] [%]	pest or weed control at 35 g/ha [1, 6] [%]	pest or weed control at 70 g/ha [1, 6] [%]	pest or weed control at 140 g/ha [1, 6] [%]	pest or weed control at 35 g/ha [1, 7] [%]	pest or weed control at 70 g/ha [1, 7] [%]	pest or weed control at 140 g/ha [1, 7] [%]	pest or weed control at 35 g/ha [1, 8] [%]	pest or weed control at 70 g/ha [1, 8] [%]	pest or weed control at 140 g/ha [1, 8] [%]	pest or weed control at 35 g/ha [2, 9] [%]	pest or weed control at 70 g/ha [2, 9] [%]	also measured
Nc1c(F)c(-c2ccc(F)c3c2OC(F)(F)O3)nc(C(=O)O)c1Cl [Compound 77]	85 to 94	95 to 100	95 to 100	75 to 84	85 to 94	95 to 100	95 to 100	95 to 100	95 to 100	85 to 94	95 to 100	95 to 100	30 to 44	60 to 74	75 to 84	0 to 29	0 to 29	0 to 29	0 to 29	0 to 29	pest or weed control at 140 g/ha [2, 9]: 0 to 29%; pest or weed control at 35 g/ha [2, 10]: 0 to 29%; pest or weed control at 70 g/ha [2, 10]: 0 to 29%; pest or weed control at 140 g/ha [2, 10]: 0 to 29%; pest or weed control at 35 g/ha [2, 11]: 0 to 29%; pest or weed control at 70 g/ha [2, 11]: 0 to 29%; pest or weed control at 140 g/ha [2, 11]: 0 to 29%; pest or weed control at 35 g/ha [2, 12]: 0 to 29%; pest or weed control at 70 g/ha [2, 12]: 0 to 29%; pest or weed control at 140 g/ha [2, 12]: 0 to 29%; pest or weed control at 35 g/ha [2, 13]: 45 to 59%; pest or weed control at 70 g/ha [2, 13]: 60 to 74%; pest or weed control at 140 g/ha [2, 13]: 60 to 74%; pest or weed control at 35 g/ha [2, 14]: 0 to 29%; pest or weed control at 70 g/ha [2, 14]: 0 to 29%; pest or weed control at 140 g/ha [2, 14]: 0 to 29%
COC(=O)c1nc(-c2ccc(Br)c3c2OC(F)(F)O3)c(F)c(N)c1Cl [Compound 78, Methyl 4-amino-6-(7-bromo-2,2-difluorobenzo[d][1,3]dioxol-4-yl)-3-chloro-5-fluoropicolinate]	95 to 100	95 to 100	95 to 100	60 to 74	75 to 84	75 to 84	95 to 100	95 to 100	95 to 100	95 to 100	95 to 100	95 to 100	85 to 94	85 to 94	85 to 94	0 to 29	0 to 29	0 to 29	0 to 29	0 to 29	pest or weed control at 140 g/ha [2, 9]: 0 to 29%; pest or weed control at 35 g/ha [2, 10]: 0 to 29%; pest or weed control at 70 g/ha [2, 10]: 0 to 29%; pest or weed control at 140 g/ha [2, 10]: 0 to 29%; pest or weed control at 35 g/ha [2, 11]: 60 to 74%; pest or weed control at 70 g/ha [2, 11]: 60 to 74%; pest or weed control at 140 g/ha [2, 11]: 60 to 74%; pest or weed control at 35 g/ha [2, 12]: 0 to 29%; pest or weed control at 70 g/ha [2, 12]: 0 to 29%; pest or weed control at 140 g/ha [2, 12]: 0 to 29%; pest or weed control at 35 g/ha [2, 13]: 0 to 29%; pest or weed control at 70 g/ha [2, 13]: 0 to 29%; pest or weed control at 140 g/ha [2, 13]: 0 to 29%; pest or weed control at 35 g/ha [2, 14]: 0 to 29%; pest or weed control at 70 g/ha [2, 14]: 0 to 29%; pest or weed control at 140 g/ha [2, 14]: 0 to 29%
COC(=O)c1nc(-c2ccc(I)c3c2OC(F)(F)O3)c(F)c(N)c1Cl [Compound 79, Methyl 4-amino-3-chloro-6-(2,2-difluoro-7-iodobenzo-[d][1,3]dioxol-4-yl)-5-fluoropicolinate]	85 to 94	85 to 94	85 to 94	60 to 74	60 to 74	60 to 74	95 to 100	95 to 100	95 to 100	85 to 94	85 to 94	85 to 94	60 to 74	75 to 84	75 to 84	0 to 29	0 to 29	0 to 29	0 to 29	0 to 29	pest or weed control at 140 g/ha [2, 9]: 0 to 29%; pest or weed control at 35 g/ha [2, 10]: 0 to 29%; pest or weed control at 70 g/ha [2, 10]: 0 to 29%; pest or weed control at 140 g/ha [2, 10]: 0 to 29%; pest or weed control at 35 g/ha [2, 11]: 0 to 29%; pest or weed control at 70 g/ha [2, 11]: 0 to 29%; pest or weed control at 140 g/ha [2, 11]: 0 to 29%; pest or weed control at 35 g/ha [2, 12]: 0 to 29%; pest or weed control at 70 g/ha [2, 12]: 0 to 29%; pest or weed control at 140 g/ha [2, 12]: 0 to 29%; pest or weed control at 35 g/ha [2, 13]: 0 to 29%; pest or weed control at 70 g/ha [2, 13]: 0 to 29%; pest or weed control at 140 g/ha [2, 13]: 0 to 29%; pest or weed control at 35 g/ha [2, 14]: 0 to 29%; pest or weed control at 70 g/ha [2, 14]: 0 to 29%; pest or weed control at 140 g/ha [2, 14]: 0 to 29%
